Legend:
Format in all cases: biochemical
[1] = molecular target: T1, PDK1 (Homo sapiens, UniProt O15530); assay: PDK1 kinase assay (33P peptide phosphorylation); details: 0.01 mM ATP, 60 min at 30° C.; read-out: PDK-1 IC50
T1 sequence (O15530 1-556): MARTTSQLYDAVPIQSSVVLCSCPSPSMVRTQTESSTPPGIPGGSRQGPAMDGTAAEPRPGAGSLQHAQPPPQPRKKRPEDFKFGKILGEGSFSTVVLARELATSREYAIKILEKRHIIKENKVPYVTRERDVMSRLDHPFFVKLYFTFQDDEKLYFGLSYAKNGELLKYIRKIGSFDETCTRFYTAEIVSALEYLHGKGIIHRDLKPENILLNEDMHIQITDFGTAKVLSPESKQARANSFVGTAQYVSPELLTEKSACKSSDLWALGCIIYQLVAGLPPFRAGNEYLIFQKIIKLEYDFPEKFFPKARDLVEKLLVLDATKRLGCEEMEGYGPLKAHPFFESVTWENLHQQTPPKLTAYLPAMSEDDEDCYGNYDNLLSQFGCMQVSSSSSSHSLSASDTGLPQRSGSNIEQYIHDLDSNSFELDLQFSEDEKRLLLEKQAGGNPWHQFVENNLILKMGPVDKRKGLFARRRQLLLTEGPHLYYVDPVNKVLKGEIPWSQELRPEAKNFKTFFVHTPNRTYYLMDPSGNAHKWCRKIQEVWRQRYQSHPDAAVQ

[2] = molecular target: T2, GST-Chk1 enzyme (Homo sapiens, UniProt O14757); assay: Chk1 kinase assay (33P Chktide phosphorylation); details: 0.01 mM ATP, 40 minutes at 30° C.; read-out: CHK-1 IC50
T2 sequence (O14757 1-476): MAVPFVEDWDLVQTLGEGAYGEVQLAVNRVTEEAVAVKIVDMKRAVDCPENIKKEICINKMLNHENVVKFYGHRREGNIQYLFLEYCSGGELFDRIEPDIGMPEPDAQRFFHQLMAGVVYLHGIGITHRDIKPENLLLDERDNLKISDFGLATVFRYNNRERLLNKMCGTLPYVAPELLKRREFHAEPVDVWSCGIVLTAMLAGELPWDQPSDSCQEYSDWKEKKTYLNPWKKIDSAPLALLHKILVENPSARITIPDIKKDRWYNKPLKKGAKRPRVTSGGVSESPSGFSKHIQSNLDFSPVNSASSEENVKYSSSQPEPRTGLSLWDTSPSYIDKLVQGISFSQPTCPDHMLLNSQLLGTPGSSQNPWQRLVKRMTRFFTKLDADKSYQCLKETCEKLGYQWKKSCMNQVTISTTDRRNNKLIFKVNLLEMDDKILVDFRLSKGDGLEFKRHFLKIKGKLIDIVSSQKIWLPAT

[3] = molecular target: CDK-2 enzyme, complexed with cyclin A (Homo sapiens, UniProt P24941); assay: CDK2 kinase assay (33P peptide phosphorylation); details: 0.1 mM ATP, cyclin A complex
[4] = molecular target: EGFR (Homo sapiens, UniProt P00533); assay: Kinase selectivity screening (example 14)
Sequence of EGFR (P00533 25-1210): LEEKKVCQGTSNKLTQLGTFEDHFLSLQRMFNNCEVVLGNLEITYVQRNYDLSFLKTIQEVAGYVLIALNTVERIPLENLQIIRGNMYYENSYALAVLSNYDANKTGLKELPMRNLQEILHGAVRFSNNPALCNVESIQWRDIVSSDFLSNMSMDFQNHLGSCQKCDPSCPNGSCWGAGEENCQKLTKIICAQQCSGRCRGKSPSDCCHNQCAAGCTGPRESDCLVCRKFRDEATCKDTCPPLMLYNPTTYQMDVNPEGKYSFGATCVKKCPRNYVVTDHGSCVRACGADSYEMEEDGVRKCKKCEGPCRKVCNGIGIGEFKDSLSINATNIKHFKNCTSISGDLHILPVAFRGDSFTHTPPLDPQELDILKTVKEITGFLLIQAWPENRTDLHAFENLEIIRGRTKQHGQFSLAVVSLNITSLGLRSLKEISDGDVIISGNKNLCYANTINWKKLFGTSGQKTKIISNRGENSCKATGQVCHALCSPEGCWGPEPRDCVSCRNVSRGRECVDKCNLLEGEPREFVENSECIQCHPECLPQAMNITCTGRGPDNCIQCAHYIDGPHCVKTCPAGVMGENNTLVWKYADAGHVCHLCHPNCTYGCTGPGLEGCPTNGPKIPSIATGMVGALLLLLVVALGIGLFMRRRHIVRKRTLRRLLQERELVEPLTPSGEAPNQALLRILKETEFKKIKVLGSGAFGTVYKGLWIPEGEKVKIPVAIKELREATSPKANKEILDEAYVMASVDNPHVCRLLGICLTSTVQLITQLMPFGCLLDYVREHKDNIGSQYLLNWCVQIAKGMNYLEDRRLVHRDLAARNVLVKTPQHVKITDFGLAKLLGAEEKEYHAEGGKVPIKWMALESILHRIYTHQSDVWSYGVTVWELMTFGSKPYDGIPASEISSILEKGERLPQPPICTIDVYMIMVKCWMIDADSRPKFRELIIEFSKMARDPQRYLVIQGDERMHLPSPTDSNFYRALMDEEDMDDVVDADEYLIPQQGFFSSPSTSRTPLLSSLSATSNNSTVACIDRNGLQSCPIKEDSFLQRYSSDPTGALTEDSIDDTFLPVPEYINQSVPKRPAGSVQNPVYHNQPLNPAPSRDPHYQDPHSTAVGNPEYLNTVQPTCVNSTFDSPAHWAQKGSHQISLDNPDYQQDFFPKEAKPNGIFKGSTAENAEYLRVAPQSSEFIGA

[5] = molecular target: FGFR1 (Homo sapiens, UniProt P11362); assay: Kinase selectivity screening (example 14)
Sequence of FGFR1 (P11362 22-822, species assumed): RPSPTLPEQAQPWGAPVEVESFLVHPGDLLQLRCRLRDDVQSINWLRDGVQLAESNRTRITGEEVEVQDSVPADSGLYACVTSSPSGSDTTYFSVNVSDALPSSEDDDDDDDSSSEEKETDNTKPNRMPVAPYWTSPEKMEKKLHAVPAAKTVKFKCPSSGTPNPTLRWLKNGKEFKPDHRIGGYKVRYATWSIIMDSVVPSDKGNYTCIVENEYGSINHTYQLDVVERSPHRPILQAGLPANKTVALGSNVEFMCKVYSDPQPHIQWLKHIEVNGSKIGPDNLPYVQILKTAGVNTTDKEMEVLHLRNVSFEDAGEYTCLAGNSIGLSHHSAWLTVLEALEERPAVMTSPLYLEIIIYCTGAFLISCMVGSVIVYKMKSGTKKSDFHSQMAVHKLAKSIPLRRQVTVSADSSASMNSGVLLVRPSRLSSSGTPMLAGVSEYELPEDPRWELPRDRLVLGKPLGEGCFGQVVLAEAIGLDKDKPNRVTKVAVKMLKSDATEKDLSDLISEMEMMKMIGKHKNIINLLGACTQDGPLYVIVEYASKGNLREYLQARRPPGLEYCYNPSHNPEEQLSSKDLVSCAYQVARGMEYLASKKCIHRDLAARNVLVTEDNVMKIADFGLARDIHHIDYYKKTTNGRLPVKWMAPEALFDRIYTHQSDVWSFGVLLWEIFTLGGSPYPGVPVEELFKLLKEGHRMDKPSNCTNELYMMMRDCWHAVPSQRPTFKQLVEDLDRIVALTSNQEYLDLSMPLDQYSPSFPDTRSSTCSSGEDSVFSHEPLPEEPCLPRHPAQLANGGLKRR

[6] = molecular target: FGFR3 (Homo sapiens, UniProt P22607); assay: Kinase selectivity screening (example 14)
Sequence of FGFR3 (P22607 23-806, species assumed): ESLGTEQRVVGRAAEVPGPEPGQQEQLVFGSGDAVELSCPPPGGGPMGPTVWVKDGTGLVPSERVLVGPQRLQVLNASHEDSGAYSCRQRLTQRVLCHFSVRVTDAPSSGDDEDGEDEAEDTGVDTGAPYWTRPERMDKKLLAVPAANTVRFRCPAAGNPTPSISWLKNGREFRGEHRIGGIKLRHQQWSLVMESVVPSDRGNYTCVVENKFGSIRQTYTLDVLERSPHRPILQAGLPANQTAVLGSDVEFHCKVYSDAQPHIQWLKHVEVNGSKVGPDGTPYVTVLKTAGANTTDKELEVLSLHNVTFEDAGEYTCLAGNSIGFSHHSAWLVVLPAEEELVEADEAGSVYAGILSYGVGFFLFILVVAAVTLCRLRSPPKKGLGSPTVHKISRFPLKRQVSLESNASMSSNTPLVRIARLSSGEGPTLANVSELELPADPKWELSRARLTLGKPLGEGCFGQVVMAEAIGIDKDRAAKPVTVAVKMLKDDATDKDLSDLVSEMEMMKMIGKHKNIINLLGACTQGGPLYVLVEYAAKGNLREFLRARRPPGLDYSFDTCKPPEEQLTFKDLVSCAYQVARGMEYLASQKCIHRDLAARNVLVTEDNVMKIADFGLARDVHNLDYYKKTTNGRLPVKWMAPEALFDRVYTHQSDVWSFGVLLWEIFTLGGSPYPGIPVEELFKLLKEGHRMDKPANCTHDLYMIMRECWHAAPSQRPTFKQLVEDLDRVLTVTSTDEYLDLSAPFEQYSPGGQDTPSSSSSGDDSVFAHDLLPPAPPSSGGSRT

[7] = molecular target: Flt1 (Homo sapiens, UniProt P17948); assay: Kinase selectivity screening (example 14)
Sequence of Flt1 (P17948 27-1338, species assumed): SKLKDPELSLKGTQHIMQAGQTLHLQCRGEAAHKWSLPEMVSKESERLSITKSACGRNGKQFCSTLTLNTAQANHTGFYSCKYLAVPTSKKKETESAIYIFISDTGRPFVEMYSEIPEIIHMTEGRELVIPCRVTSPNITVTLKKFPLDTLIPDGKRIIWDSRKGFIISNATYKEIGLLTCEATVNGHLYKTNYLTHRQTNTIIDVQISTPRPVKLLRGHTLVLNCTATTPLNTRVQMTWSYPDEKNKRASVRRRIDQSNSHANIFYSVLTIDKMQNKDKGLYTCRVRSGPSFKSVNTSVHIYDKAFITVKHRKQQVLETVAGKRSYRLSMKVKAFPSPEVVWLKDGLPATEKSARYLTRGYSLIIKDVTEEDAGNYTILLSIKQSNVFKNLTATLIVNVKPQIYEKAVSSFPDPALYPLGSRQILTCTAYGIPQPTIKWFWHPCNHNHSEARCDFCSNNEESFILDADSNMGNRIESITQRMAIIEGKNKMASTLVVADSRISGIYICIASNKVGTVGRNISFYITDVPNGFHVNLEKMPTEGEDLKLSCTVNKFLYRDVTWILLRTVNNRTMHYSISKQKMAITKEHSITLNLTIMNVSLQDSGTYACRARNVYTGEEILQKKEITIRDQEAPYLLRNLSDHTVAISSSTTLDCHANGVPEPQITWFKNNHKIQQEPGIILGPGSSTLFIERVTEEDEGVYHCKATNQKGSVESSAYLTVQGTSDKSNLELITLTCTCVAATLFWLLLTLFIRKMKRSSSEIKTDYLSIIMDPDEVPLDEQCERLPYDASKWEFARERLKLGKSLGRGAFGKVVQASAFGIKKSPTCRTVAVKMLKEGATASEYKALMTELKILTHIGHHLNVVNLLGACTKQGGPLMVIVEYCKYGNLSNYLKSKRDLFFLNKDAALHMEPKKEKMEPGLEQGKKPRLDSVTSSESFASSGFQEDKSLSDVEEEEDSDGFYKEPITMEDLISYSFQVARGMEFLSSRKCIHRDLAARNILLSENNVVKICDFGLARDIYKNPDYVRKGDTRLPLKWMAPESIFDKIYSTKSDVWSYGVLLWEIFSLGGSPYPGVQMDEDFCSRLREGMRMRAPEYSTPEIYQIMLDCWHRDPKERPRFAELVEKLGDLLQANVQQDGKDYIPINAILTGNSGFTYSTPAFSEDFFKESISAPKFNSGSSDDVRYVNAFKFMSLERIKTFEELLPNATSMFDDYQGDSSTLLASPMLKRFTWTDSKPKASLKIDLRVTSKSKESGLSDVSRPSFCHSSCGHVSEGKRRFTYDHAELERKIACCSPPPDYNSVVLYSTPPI

[8] = molecular target: Tie2 (Homo sapiens, UniProt Q02763); assay: Kinase selectivity screening (example 14)

Cc1[nH]nc(-c2nc3cc4cn[nH]c4cc3[nH]2)c1C(=O)NC1CCNCC1 [Example 14]
IC50 [1]: 10 nM | IC50 [2]: 6 nM | IC50 [3]: 5110 nM | selectivity versus EGFR [4]: > 20 fold | selectivity versus FGFR1 [5]: > 20 fold | selectivity versus FGFR3 [6]: > 20 fold | selectivity versus Flt1 [7]: > 20 fold | selectivity versus Tie2 [8]: > 20 fold

— patent US20090131470A1, “PYRAZOLE-SUBSTITUTED BENZIMIDAZOLE DERIVATIVES FOR USE IN THE TREATMENT OF CANCER AND AUTOIMMUNE DISORDERS” (priority 2005, published 2009)
